ChEMBL document CHEMBL1201862, “PubChem BioAssay data set” (2004)
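Following 48 hours of exposure in 96-well plates, responses at five concentrations were used to interpolate endpoints linearly. Here, GI50 denotes the concentration required for 50% inhibition of growth.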 Activity calls are given as the source filed them. Rule as the data show it: active = GI50 up to about 1.1 µM and inactive = higher.

What was measured:
Assay in all cases: growth of human tumour cells (NCI), 48 h
786-0 = system: 786-0
A549 = system: A549
CCRF-CEM = system: CCRF-CEM
HCT-116 = system: HCT-116
HCT-15 = system: HCT-15
HL-60 = system: HL-60
HT-29 = system: HT-29
LOX IMVI = system: LOX IMVI
M14 = system: M14
MCF7 = system: MCF7
Malme-3M = system: Malme-3M
NCI-H226 = system: NCI-H226
OVCAR-3 = system: OVCAR-3
OVCAR-5 = system: OVCAR-5
OVCAR-8 = system: OVCAR-8
SF-268 = system: SF-268
SNB-75 = system: SNB-75
UACC-257 = system: UACC-257
ACHN = system: ACHN
HOP-62 = system: HOP-62

SMILES	GI50 (786-0)	GI50 (A549)	GI50 (CCRF-CEM)	GI50 (HCT-116)	GI50 (HCT-15)	GI50 (HL-60)	GI50 (HT-29)	GI50 (LOX IMVI)	GI50 (M14)	GI50 (MCF7)	GI50 (Malme-3M)	GI50 (NCI-H226)	GI50 (OVCAR-3)	GI50 (OVCAR-5)	GI50 (OVCAR-8)	GI50 (SF-268)	GI50 (SNB-75)	GI50 (UACC-257)	GI50 (ACHN)	GI50 (HOP-62)
CC(C#N)(NO)C(C)(C#N)NO (stereo unspecified)	> 100 µM (inactive)	> 100 µM (inactive)	> 100 µM (inactive)	> 100 µM (inactive)	> 100 µM	> 100 µM (inactive)	> 100 µM (inactive)	> 100 µM (inactive)	> 100 µM (inactive)	> 100 µM (inactive)	> 100 µM (inactive)	97.9 µM (inactive)	> 100 µM (inactive)	> 100 µM (inactive)	> 100 µM (inactive)	> 100 µM (inactive)	> 100 µM (inactive)	> 100 µM (inactive)		
Cc1ccc(S(=O)(=O)Nn2c(C)cc3ccc(S(=O)(=O)Nc4ccccc4[N+](=O)[O-])cc3c2=O)cc1	> 100 µM (inactive)	72.8 µM (inactive)	> 100 µM (inactive)	47.4 µM (inactive)	> 100 µM	> 100 µM (inactive)	> 100 µM (inactive)	> 100 µM (inactive)	13.6 µM (inactive)	99.3 µM (inactive)	> 100 µM (inactive)	40.1 µM (inactive)	74.1 µM (inactive)	> 100 µM (inactive)	> 100 µM (inactive)	> 100 µM (inactive)	> 100 µM (inactive)	> 100 µM (inactive)	> 100 µM (inactive)	72.3 µM (inactive)
COC(=O)c1cc(C(=CCC[C@H]2CC[C@@]3(C)C(CCC4C3CC[C@@]3(C)C4CC[C@@H]3C(C)CCCC(C)C)C2)c2cc(Cl)c(O)c(C(=O)OC)c2)cc(Cl)c1O (stereo partly specified)	> 10 µM (inactive)	> 10 µM (inactive)	> 10 µM (inactive)	> 10 µM (inactive)	> 10 µM	> 10 µM (inactive)	> 10 µM (inactive)	> 10 µM (inactive)	> 10 µM (inactive)	> 10 µM (inactive)	> 10 µM (inactive)	> 10 µM (inactive)	> 10 µM (inactive)	> 10 µM (inactive)	> 10 µM (inactive)	> 10 µM (inactive)	> 10 µM (inactive)	> 10 µM (inactive)	> 10 µM (inactive)	> 10 µM (inactive)
Cc1cc(C)n(C(=O)CSc2nc3ccc(I)cc3c(=O)n2Cc2ccccc2)n1	28.3 µM (inactive)	41 µM (inactive)	67.1 µM (inactive)	57 µM (inactive)	30.4 µM	> 100 µM (inactive)	> 100 µM (inactive)	> 100 µM (inactive)	97.1 µM (inactive)	96.6 µM (inactive)		62.7 µM (inactive)	58.6 µM (inactive)	> 100 µM (inactive)	24.9 µM (inactive)	17.3 µM (inactive)	25.3 µM (inactive)	33.9 µM (inactive)	44.5 µM (inactive)	31.9 µM (inactive)
C/C(=C/CNc1ncnc2c1ncn2CCC#N)CO	> 100 µM (inactive)	> 100 µM (inactive)	> 100 µM (inactive)	> 100 µM (inactive)		> 100 µM (inactive)	> 100 µM (inactive)	> 100 µM (inactive)	> 100 µM (inactive)	> 100 µM (inactive)	> 100 µM (inactive)	> 100 µM (inactive)	> 100 µM (inactive)	> 100 µM (inactive)	> 100 µM (inactive)	> 100 µM (inactive)	> 100 µM (inactive)	> 100 µM (inactive)	> 100 µM (inactive)	> 100 µM (inactive)
CC(C)(CO)CNc1nc(N)nc(Cl)c1C=O	79.3 µM (inactive)	71.1 µM (inactive)	20.6 µM (inactive)	20 µM (inactive)	15.3 µM	3.9 µM (inactive)	45.2 µM (inactive)	16.4 µM (inactive)		50.4 µM (inactive)	39.7 µM (inactive)	50.8 µM (inactive)	25.6 µM (inactive)	> 100 µM (inactive)	22.5 µM (inactive)	14 µM (inactive)	35.6 µM (inactive)	35.4 µM (inactive)	48.8 µM (inactive)	23.2 µM (inactive)
N#CC[N+]1(Cc2ccccn2)CCCC1.O=S(=O)([O-])c1ccccc1	> 100 µM (inactive)	> 100 µM (inactive)		> 100 µM (inactive)	> 100 µM	70.6 µM (inactive)	> 100 µM (inactive)	> 100 µM (inactive)	> 100 µM (inactive)	> 100 µM (inactive)	> 100 µM (inactive)	> 100 µM (inactive)	> 100 µM (inactive)	> 100 µM (inactive)	> 100 µM (inactive)	> 100 µM (inactive)	58.9 µM (inactive)	> 100 µM (inactive)	> 100 µM (inactive)	> 100 µM (inactive)
Cc1nc2ccc(S(=O)(=O)Nc3ccccn3)cc2c(=O)n1NS(=O)(=O)c1ccccn1	> 100 µM (inactive)		> 100 µM (inactive)	> 100 µM (inactive)	> 100 µM	> 100 µM (inactive)	> 100 µM (inactive)	> 100 µM (inactive)	> 100 µM (inactive)	> 100 µM (inactive)	> 100 µM (inactive)	> 100 µM (inactive)	> 100 µM (inactive)	> 100 µM (inactive)	> 100 µM (inactive)	> 100 µM (inactive)	> 100 µM (inactive)	> 100 µM (inactive)	> 100 µM (inactive)	> 100 µM (inactive)
COC1/C=C/C(C)C(C(C)C(OC)C(C)CCC(=O)C(C)C(CC(=O)O)OC)OC(=O)/C=C/C=C(\C)CC(OC)C(OC)C2=CC(=O)O[C@@H](C(C)C(OC)CC(OC)/C=C/C(C)C(O)C1)[C@H]2O (stereo partly specified)	0.0223 µM (active)	0.0419 µM (active)	0.0484 µM (active)	0.00714 µM (active)	0.0611 µM	0.0237 µM (active)	0.026 µM (active)	0.0188 µM (active)	0.0286 µM (active)	0.0715 µM (active)		0.0336 µM (active)	0.188 µM (active)	0.265 µM (active)	0.0337 µM (active)	0.046 µM (active)	0.0311 µM (active)	0.0993 µM (active)	0.0473 µM (active)	0.121 µM (active)
CC1(CF)SCc2nc3ccccc3n21 (stereo unspecified)	> 100 µM (inactive)	> 100 µM (inactive)		> 100 µM (inactive)	> 100 µM	> 100 µM (inactive)	> 100 µM (inactive)	> 100 µM (inactive)	> 100 µM (inactive)	> 100 µM (inactive)	> 100 µM (inactive)	> 100 µM (inactive)	> 100 µM (inactive)	> 100 µM (inactive)	> 100 µM (inactive)	> 100 µM (inactive)	> 100 µM (inactive)	> 100 µM (inactive)	> 100 µM (inactive)	> 100 µM (inactive)
